Reference: US20100093872A1, “STABLE AQUEOUS FORMULATIONS OF WATER INSOLUBLE OR POORLY SOLUBLE DRUGS” (Erimos Pharmaceuticals LLC, priority 2008, published 2010)
In brackets after ≈: the same amount, converted by molar mass. Like-named read-outs stand apart in the source and are kept apart here. Each block holds one compound with its values, some of them ahead of it.

Experiments:
[1] = Accelerated stability of 60 L lot terameprocol/HPβCD samples; type: physicochemical; conditions: 40° C/75% RH for 1 month; 60 L lots; no pH adjustment with/without homogenization, or pH 7 without homogenizer, with/without autoclaving
Method: The 5 L terameprocol formulation process was scaled up to 60 L lots. The 60 L lots were conducted to (a) evaluate the criticality of using an homogenizer to promote complexation of the terameprocol and HPβCD (b) evaluate the stability of the terameprocol/HPβCD complex upon pH adjustment after compounding using NaOH and/or HCl (c) investigate the stability after autoclaving up to 30 minutes at 121° C. of the non pH adjusted, pH adjusted, homogenized, and non-homogenized terameprocol samples (d) optimize the 5 L formulation process to 60 L in order to support a clinical scale-up to 373 L.
It was determined that with proper tank design using an aggressive mixer introduced enough energy into the system where the homogenizer may not be critical for complexation. Samples of terameprocol that had 1) no pH adjustment with and without homogenization and 2) pH adjusted to 7 with no homogenizer and with and without autoclaving were stable at the accelerated condition of 40° C/75% RH for 1 month.

[2] = Determination of optimum temperature requirement (microscopic images of in-process samples); type: physicochemical; conditions: for crystals in in-process sample (microscopic image): HPβCD solution, homogenized
Method: A solution of HPβCD was prepared in a 5 L jacketed vessel and heated to aid in dissolution. Terameprocol was added slowly to the HPβCD solution. The in-line homogenizer was utilized and the temperature was maintained at 40° C. for 2 hours. […] The temperature was increased to 60° C. with homogenization and held for one hour. […] The temperature was increased to 80° C. under homogenization for 2 hours. It was noted that due to heating in a closed vessel, the system was slightly pressurized due to the increase in operating temperature. […] The experiment was repeated but the system was taken to temperature above the melting point (>104° C.) with homogenization in the same closed vessel. The vessel was then cooled and samples taken. […] It was concluded the optimum temperature requirement was that above the drug's melting point.

physchem [3] = type: physicochemical; conditions: water
Method: Terameprocol is an extremely difficult drug to formulate because it is effectively insoluble in all of the commonly used aqueous media used for intravenous delivery of pharmaceuticals. Terameprocol's solubility in an aqueous solvent, at all pH's in water, 0.9% saline and 5% dextrose is <0.01 mg/mL, a level below the limit of quantitation of the RP-HPLC assay used for evaluation. In order to develop a formulation suitable for clinical use, it is preferred that the solubility of the drug be equal to or exceed 5 mg/mL. At concentrations below this limit, large volumes of solvent are required to deliver the drug. The extremely low solubility of terameprocol presents major formulation challenges using conventional formulation techniques such as the use of organic solvents, surfactants or extremes of pH. These conventional formulation approaches would require the administration of large concentrations of co-solvents and may render the solution viscous and/or difficult to handle during reconstitution in the bedside or pharmacy. […] The use of conventional approaches have met with limited success when formulating terameprocol for intravenous parenteral administration.

physchem [4] = type: physicochemical; conditions: organic solvent or mixture, thermodynamic from solid
Method: The solubility of terameprocol was tested in various solvents and dispersed systems. An excess of the solid API (20-50 mg) was shaken with 1 mL of a given solvent overnight (˜16 hr) at room temperature on a gyratory shaker at maximum speed. The samples were filtered through 0.45 μm PVDF filter. The filtrates were diluted to the working linear range (0.06-0.1 mg/mL) of the UV-Vis method appropriately in acetonitrile and analyzed for terameprocol concentration using a UV-Vis spectrophotometer. The equation of the standard curve was y=16.70x+0.016 with a R^2=0.999 monitored at 281 nm.
Solubility in PEG 300 increased with increasing temperature with the value being greater than 600 mg/mL at 95° C.

[5] = Achievable terameprocol concentration in HPβCD formulations without co-solvent (bench-scale development); type: physicochemical
Method: The inventors of the present invention have made the surprising discovery that terameprocol can be formulated in cyclodextrins without the need for elaborate chemical solvent matrices and that lead to increases in the solubility of water insoluble drugs through the formation of a stable inclusion complex. […] Details of this will be discussed later.
Bench-top (10 mL) to 5 L scale development studies were performed to remove PEG 300 from terameprocol/HPβCD formulations. Conclusions from the bench scale experiments were (a) 7 mg/mL is the maximum achievable terameprocol concentration in an IV formulation containing 30-40% HPβCD (b) incorporating the drug at high temperatures (80° C. or greater) is an important step in forming the inclusion complex (c) high mechanical energy must be provided when cooling the complex to approximately ambient condition once formed. There were differences in equipment used at the 10 mL vs. 5 L scale. The 10 mL scale utilized glass beakers with a sonicator for incorporation, while the 5 L experiments were conducted with a 10 L stainless steel jacketed vessel equipped with a recirculating heating bath, overhead air powered blade mixer and an in-line homogenizer.

[6] = Chemical stability of terameprocol under stress (base, acid, heat, light, oxidizer, water); type: physicochemical; conditions: subjected to base, oxidizer, and water
Text: Terameprocol is a small molecule with a molecular weight of 358.5 g/mol; it is hydrophobic, and non-ionic.

[7] = Stability of terameprocol/HPβCD 5 L formulation with NaCl and after autoclaving (precipitation); type: physicochemical
Method: The 5 L experiments were conducted to (a) explore the acceptable temperature range indicated in ‘b’ above required for forming terameprocol cyclodextrin complexes, (b) evaluate the stability of terameprocol/HPβCD upon autoclaving: 15 minutes vs. 30 minutes at 121° C., (c) evaluate the compatibility of terameprocol/HPβCD with 0.5% (w/v) sodium chloride (NaCl), and (d) develop a process which could be scaled to the next engineering size of 60 L. The acceptable temperature required for complexation of terameprocol and cyclodextrin (HPβCD) was determined to be above the melting point of terameprocol (>104° C.). The resulting terameprocol/HPβCD formulation was stable for 4 weeks at room temperature (RT), 4 weeks under refrigerated conditions, and 2 weeks under accelerated conditions (40° C.) for all sample types evaluated: non-autoclaved, autoclaved up to 30 minutes, and upon spiking with NaCl as shown in Table 2. The compatibility of terameprocol/HPβCD with NaCl supports flushing of the IV lines with 0.9% Saline to keep lines patent if required.

[8] = cited from earlier work
[9] = 0.5% w/v NaCl, autoclaved 15 min at 121° C.
[10] = 0.5% w/v NaCl, autoclaved 30 min at 121° C.
[11] = Unspiked, autoclaved 15 min at 121° C.
[12] = Unspiked, autoclaved 30 min at 121° C.

formulation stability [1]: stable
crystals in in-process sample (microscopic image) ([2]; 40° C. for 2 hours (FIG. 6-A)): numerous terameprocol crystals present
crystals in in-process sample (microscopic image) ([2]; 60° C. for one hour (FIG. 6-B)): presence of crystals was still evident
crystal formation ([2]; processed above the melting point (>104° C.) with homogenization, immediately or after 4 weeks): no crystal formation
solubility (physchem [3]): < 10 µg/mL
solubility at 16 h (physchem [4]; 25 °C, solubility in pharmaceutically relevant solvents): < 10000 µg/mL
solubility (physchem [4]; 40 °C): 10.1 mg/mL (≈ 28.2 mM)
solubility (physchem [4]; 80 °C): > 400 mg/mL
solubility (physchem [4]; 95 °C): > 600 mg/mL
maximum achievable terameprocol concentration ([5]; IV formulation containing 30-40% HPβCD, no PEG 300, bench scale): 7 mg/mL
concentration obtained on mixing with cyclodextrin in water without solvent ([5]; all temperatures below the melting point, or precipitation): ≤ 7 mg/mL
stability / degradation [6]: does not degrade
Precipitation 2-8° C. (4-weeks) [7, 9]: No
Precipitation 40° C. (2-weeks) [7, 9]: No
Precipitation RT (4-weeks) [7, 9]: No
Terameprocol [7, 9]: 6.03 mg/mL
Precipitation 2-8° C. (4-weeks) [7, 10]: No
Precipitation 40° C. (2-weeks) [7, 10]: No
Precipitation RT (4-weeks) [7, 10]: No
Terameprocol [7, 10]: 5.77 mg/mL
Precipitation 2-8° C. (4-weeks) ([7]; 0.5% w/v NaCl, not autoclaved): No
Precipitation 40° C. (2-weeks) ([7]; 0.5% w/v NaCl, not autoclaved): No
Precipitation RT (4-weeks) ([7]; 0.5% w/v NaCl, not autoclaved): No
Terameprocol ([7]; 0.5% w/v NaCl, not autoclaved): 5.89 mg/mL
Precipitation 2-8° C. (4-weeks) [7, 11]: No
Precipitation 40° C. (2-weeks) [7, 11]: No
Precipitation RT (4-weeks) [7, 11]: No
Terameprocol [7, 11]: 5.76 mg/mL
Precipitation 2-8° C. (4-weeks) [7, 12]: No
Precipitation 40° C. (2-weeks) [7, 12]: No
Precipitation RT (4-weeks) [7, 12]: No
Terameprocol [7, 12]: 5.97 mg/mL
Precipitation 2-8° C. (4-weeks) ([7]; Unspiked, not autoclaved): No
Precipitation 40° C. (2-weeks) ([7]; Unspiked, not autoclaved): No
Precipitation RT (4-weeks) ([7]; Unspiked, not autoclaved): No
Terameprocol ([7]; Unspiked, not autoclaved): 5.80 mg/mL
SMILES: COc1ccc(C[C@@H](C)[C@@H](C)Cc2ccc(OC)c(OC)c2)cc1OC [terameprocol, tetra-o-methyl nordihydroguaiaretic acid]
crystals in in-process sample (microscopic image) ([2]; 80° C. for 2 hours (FIG. 6-C)): significant reduction in crystal formation

SMILES: CC(O)COC[C@H]1O[C@@H]2O[C@H]3[C@H](O)[C@@H](O)[C@@H](O[C@H]4[C@H](O)[C@@H](O)[C@@H](O[C@H]5[C@H](O)[C@@H](O)[C@@H](O[C@H]6[C@H](O)[C@@H](O)[C@@H](O[C@H]7[C@H](O)[C@@H](O)[C@@H](O[C@H]8[C@H](O)[C@@H](O)[C@@H](O[C@H]1[C@H](O)[C@H]2O)O[C@@H]8COCC(C)O)O[C@@H]7COCC(C)O)O[C@@H]6COCC(C)O)O[C@@H]5COCC(C)O)O[C@@H]4COCC(C)O)O[C@@H]3COCC(C)O (stereo partly drawn) [HPβCD, hydroxypropyl beta-cyclodextrin]
stability during sterilization ([8]; 121° C. for 15 minutes): stable
hydrolysis ([8]; extreme acidic conditions of pH 2 at 60° C.): slight hydrolysis
hydrolysis ([8]; pH 4, at 40° C. after 24 hrs): No significant hydrolysis
